Source: patent US8178506B2, “Oligomeric compounds and compositions for use in modulation of small non-coding RNAs” (Regulus Therapeutics Inc., priority 2003, dated 2012)
In the oligonucleotide strings, read from the 5' end, every base follows the letter of its sugar. An asterisk marks phosphorothioate; unmarked linkages are phosphodiester. Other units and linkages are bracketed, terminal groups are in braces. A string of capitals states the bases alone. e = 2'-O-(2-methoxyethyl) (MOE); [5mC] = 5-methylcytosine

Legend:
Format in all cases: cell-based, human
[1] = system: adipocytes; assay: Triglyceride accumulation assay in adipocytes
Description: The triglyceride accumulation assay measures the synthesis of triglyceride by adipocytes. Triglyceride accumulation is measured using the Infinity™ Triglyceride reagent kit (Sigma-Aldrich, St. Louis, Mo.). On day nine post-transfection, cells are washed and lysed at room temperature, and the triglyceride assay reagent is added. Triglyceride accumulation is measured based on the amount of glycerol liberated from triglycerides by the enzyme lipoprotein lipase. Liberated glycerol is phosphorylated by glycerol kinase, and hydrogen peroxide is generated during the oxidation of glycerol-1-phosphate to dihydroxyacetone phosphate by glycerol phosphate oxidase. Horseradish peroxidase (HRP) uses H2O2 to oxidize 4-aminoantipyrine and 3,5 dichloro-2-hydroxybenzene sulfonate to produce a red-colored dye. Dye absorbance, which is proportional to the concentration of glycerol, is measured at 515 nm using an UV spectrophotometer. Glycerol concentration is calculated from a standard curve for each assay, and data are normalized to total cellular protein as determined by a Bradford assay (Bio-Rad Laboratories, Hercules, Calif.).
An increase in triglyceride content is another well-established marker for adipocyte differentiation. The triglyceride accumulation assay measures the synthesis of triglyceride by adipocytes. Triglyceride accumulation was measured using the Infinity™ Triglyceride reagent kit (Sigma-Aldrich, St. Louis, Mo.). Human white preadipocytes (Zen-Bio Inc., Research Triangle Park, N.C.) were grown in preadipocyte media (ZenBio Inc.). One day before transfection, 96-well plates were seeded with 3000 cells/well. Cells were transfected according to standard published procedures with 250 nM oligomeric compound in LIPOFECTIN™ (Invitrogen Corporation, Carlsbad, Calif.) (Monia et al., J. Biol. Chem. 1993 268(19):14514-22). Oligomeric compounds were tested in triplicate on each 96-well plate, and the effects of TNF-α, a positive drug control that inhibits adipocyte differentiation, were also measured in triplicate. Negative and transfectant-only controls may be measured up to six times per plate. After the cells have reached confluence (approximately three days), they were exposed to differentiation media (Zen-Bio, Inc.) containing a PPAR-γ agonist, IBMX, dexamethasone, and insulin for three days. Cells were then fed adipocyte media (Zen-Bio, Inc.), which was replaced at 2 to 3 day intervals. […] Triglyceride accumulation was measured based on the amount of glycerol liberated from triglycerides by the enzyme lipoprotein lipase. Liberated glycerol is phosphorylated by glycerol kinase, and hydrogen peroxide is generated during the oxidation of glycerol-1-phosphate to dihydroxyacetone phosphate by glycerol phosphate oxidase. Horseradish peroxidase (HRP) uses H2O2 to oxidize 4-aminoantipyrine and 3,5 dichloro-2-hydroxybenzene sulfonate to produce a red-colored dye. Dye absorbance, which is proportional to the concentration of glycerol, was measured at 515 nm using an UV spectrophotometer. Glycerol concentration was calculated from a standard curve for each assay, and data were normalized to total cellular protein as determined by a Bradford assay (Bio-Rad Laboratories, Hercules, Calif.). Results are expressed as a percent±standard deviation relative to transfectant-only control.

[2] = system: aP2; assay: aP2 mRNA expression in adipocytes (real-time PCR); conditions: for AP2 mRNA: differentiating adipocytes, control = treatment with ISIS 342673; for aP2 mRNA: differentiating adipocytes transfected with oligomeric compound, Table 75
Description: (§1) Expression of the four hallmark genes, HSL, aP2, Glut4, and PPARγ, is also measured in adipocytes transfected with oligomeric compounds of the invention. Cells are lysed on day nine post-transfection and total RNA is harvested. The amount of total RNA in each sample is determined using a Ribogreen Assay (Invitrogen Life Technologies, Carlsbad, Calif.).
(§2) For assaying adipocyte differentiation, expression of the four hallmark genes, HSL, aP2, Glut4, and PPARγ, as well as triglyceride (TG) accumulation and leptin secretion were measured in adipocytes transfected with the uniform 2′-MOE phosphorothioate (PS) oligomeric compounds previously described. Cells are lysed on day nine post-transfection, in a guanadinium-containing buffer and total RNA is harvested. Real-time PCR is performed (Applied Biosystems, Prism 7700) on the total RNA using the following primer/probe sets for the adipocyte differentiation hallmark genes: (aP2): forward 5′-GGTGGTGGAATGCGTCATG-3′ (SEQ ID NO: 746), reverse 5′-[…]-3′ (SEQ ID NO: 747), probe 5′-FAM-[…]-TAMRA-3′ (SEQ ID NO: 748); (Glut4): forward 5′-GGCCTCCGCAGGTTCTG-3′ (SEQ ID NO: 749), reverse 5′-[…]-3′ (SEQ ID NO: 750), probe 5′-FAM-[…]-TAMRA-3′ (SEQ ID NO: 751); (HSL): forward 5′-ACCTGCGCACAATGACACA-3′ (SEQ ID NO: 752), reverse 5′-[…]-3′ (SEQ ID NO: 753), probe 5′-FAM-[…]-TAMRA-3′ (SEQ ID NO: 754); (PPAR-γ): forward 5′-[…]-3′ (SEQ ID NO: 755), reverse 5′-[…]-3′ (SEQ ID NO: 756), probe 5′-FAM-[…]-TAMRA-3′ (SEQ ID NO: 757). The amount of total RNA in each sample is determined using a Ribogreen Assay (Molecular Probes, Eugene, Oreg.), and expression levels of the adipocyte differentiation hallmark genes were normalized to total RNA.

[3] = system: HSL; assay: HSL mRNA expression in adipocytes (real-time PCR)
Description: as §1, §2

[4] = system: Glut4; assay: Glut4 mRNA expression in adipocytes (real-time PCR)
Description: as §1, §2

[5] = system: PPARγ; assay: PPARγ mRNA expression in adipocytes (real-time PCR)
Description: as §1, §2

[6] = system: HeLa cells; assay: Cell cycle assay in HeLa cells; conditions: HeLa cells
[7] = Table 17, differentiating adipocytes, control = treatment with ISIS 342673
[8] = differentiating adipocytes transfected with oligomeric compound, Table 75
[9] = Table 18, differentiating adipocytes, control = treatment with ISIS 342673
[10] = 150 nM oligomeric compound, 24 hours, relative to untreated control (UTC = 100)
[11] = 150 nM oligomeric compound, 48 hours after treatment, relative to untreated control (UTC=100)
[12] = 150 nM, 48 hours, relative to untreated control

Substance	TG (triglyceride accumulation) [1, 8]	aP2 mRNA [2]	HSL mRNA [3, 8]	GLUT4 mRNA [4, 8]	PPAR gamma mRNA [5, 8]	other results
328135 (eA*e[5mC]*e[5mC]*eG*eA*eA*e[5mC]*eA*eA*eA*eG*eT*e[5mC]*eT*eG*eA*e[5mC]*eA*eG*eG*eA; anti-miR) [compound 328135]	29 percentage of untreated control (UTC)	34 percentage of untreated control (UTC)	20 percentage of untreated control (UTC)	19 percentage of untreated control (UTC)	33 percentage of untreated control (UTC)	TG (triglyceride accumulation) [1, 7]: 63.6 percentage of control; AP2 mRNA ([2]; Table 17): 80.6 percentage of control; HSL mRNA [3, 7]: 76.7 percentage of control; GLUT4 mRNA [4, 7]: 90.3 percentage of control; PPAR gamma mRNA [5, 7]: 70.0 percentage of control
344269 (antisense UAACCGAUUUCAAAUGGUGCUA; all 2'-MOE, all phosphorothioate, methylation of C and T or U not given here) [compound 344269]	42 percentage of untreated control (UTC)	41 percentage of untreated control (UTC)	35 percentage of untreated control (UTC)	28 percentage of untreated control (UTC)	48 percentage of untreated control (UTC)	–
344341 (CACAUGGUUAGAUCAAGCACAA; anti-miR; all 2'-MOE, all phosphorothioate, methylation of C and T or U not given here) [compound 344341]	50 percentage of untreated control (UTC)	42 percentage of untreated control (UTC)	33 percentage of untreated control (UTC)	14 percentage of untreated control (UTC)	49 percentage of untreated control (UTC)	–
346906 (ACAGGAUUGAGGGGGGGCCCU; all 2'-MOE, all phosphorothioate, methylation of C and T or U not given here) [compound 346906]	83 percentage of untreated control (UTC)	77 percentage of untreated control (UTC)	70 percentage of untreated control (UTC)	70 percentage of untreated control (UTC)	80 percentage of untreated control (UTC)	–
328139 (eT*eA*e[5mC]*eT*eT*eT*eT*e[5mC]*eA*eT*eT*e[5mC]*e[5mC]*e[5mC]*e[5mC]*eT*e[5mC]*eA*e[5mC]*e[5mC]*eA; anti-miR) [compound 328139]	90 percentage of untreated control (UTC)	100 percentage of untreated control (UTC)	116 percentage of untreated control (UTC)	85 percentage of untreated control (UTC)	91 percentage of untreated control (UTC)	TG (triglyceride accumulation) [1, 7]: 89.1 percentage of control; AP2 mRNA ([2]; Table 17): 98.3 percentage of control; HSL mRNA [3, 7]: 92.6 percentage of control; GLUT4 mRNA [4, 7]: 106.3 percentage of control; PPAR gamma mRNA [5, 7]: 115.0 percentage of control
328108 (antisense eA*eA*eA*e[5mC]*eT*eT*eG*eT*eT*eA*eA*eT*eT*eG*eA*e[5mC]*eT*eG*eT*e[5mC]*eA) [compound 328108]	79 percentage of untreated control (UTC)	87 percentage of untreated control (UTC)	75 percentage of untreated control (UTC)	65 percentage of untreated control (UTC)	72 percentage of untreated control (UTC)	TG (triglyceride accumulation) [1, 9]: 89.6 percentage of control; AP2 mRNA ([2]; Table 18): 83.7 percentage of control; HSL mRNA [3, 9]: 90.1 percentage of control; GLUT4 mRNA [4, 9]: 94.9 percentage of control; PPAR gamma mRNA [5, 9]: 84.0 percentage of control
344338 (antisense AUGCCCUUUUAACAUUGCACUG; all 2'-MOE, all phosphorothioate, methylation of C and T or U not given here) [compound 344338]	103 percentage of untreated control (UTC)	86 percentage of untreated control (UTC)	89 percentage of untreated control (UTC)	66 percentage of untreated control (UTC)	91 percentage of untreated control (UTC)	–
338678 (antisense CTGGTTGGGTATGAGACAGA; all 2'-MOE, all phosphorothioate, methylation of C not given here) [compound 338678]	–	–	–	–	–	% cells aneuploid [6, 10]: 202%; % cells in cell cycle phase G1 [6, 10]: 122%; % cells in cell cycle phase G2/M [6, 10]: 131%; % cells in cell cycle phase S [6, 10]: 75%; % cells in cell cycle phase subG1 [6, 10]: 162%; % cells in cell cycle phase: G1 [6, 11]: 81%; % cells in cell cycle phase: G2/M [6, 11]: 188%; % cells in cell cycle phase: S [6, 11]: 78%; % cells in cell cycle phase: aneuploid [6, 11]: 179%; % cells in cell cycle phase: subG1 [6, 11]: 1158%; % cells in cell cycle phase G1 [6, 12]: 103%; % cells in cell cycle phase G2/M [6, 12]: 105%; % cells in cell cycle phase S [6, 12]: 94%; % cells in cell cycle phase aneuploid [6, 12]: 132%; % cells in cell cycle phase subG1 [6, 12]: 129%
